In article PMC8567874, “Metronomic delivery of orally available pemetrexed-incorporated colloidal dispersions for boosting tumor-specific immunity” (Drug Delivery, 2021):
Where two headings read alike, the source gives them in different places.

How the values were obtained:
LLC cell-bearing mice = assay: In vivo antitumor efficacy in LLC cell-bearing mice; parameters: species or system C57BL/6 mice
Experimental: The in vivo dose-dependent antitumor effects of oral PMX/DL(1:1)-CD compared to PMX-IV were evaluated by inoculating LLC cells at a density of 1 × 10^6 cells/100 μL PBS (pH 7.4) into the right dorsal flanks of 6-week-old female C57BL/6 mice. The oral doses for PMX/DL(1:1)-CD with antitumor activities without toxic effects were determined based on our previous study (Maharjan et al., [2019]). […] The body weights and tumor volumes of all mice were measured every 3 days. Tumor volume was then calculated as a^2 × b × 0.52, where a and b were the width and length of the tumor, respectively. The mice were sacrificed and the tumor masses were measured 21 days after drug administration.

[1] = In situ single-pass rat intestinal perfusion; format: in vivo; settings: other: in situ single-pass intestinal perfusion; for concentration at 15 min / concentration at 30 min / concentration at 45 min / concentration at 60 min / concentration at 75 min / concentration at 90 min / concentration at 105 min / concentration at 120 min: rat, outlet intestinal perfusate, 100 μg/mL, rat intestinal perfusion
Experimental: The in situ single-pass intestinal effective permeabilities (Peff) of PMX, PMX/DL(1:1), PMX/DL(1:2), PMX/DL(1:1)-CD, and PMX/DL(1:2)-CD were investigated in rats. The rats were fasted overnight for 12–16 h with free access to water before the experiment and then anesthetized by intramuscular injection of tiletamine·HCl–zolazepam mixture (1:1 [w/w]; 40 mg/kg). With the animal in the supine position, the abdominal cavity was opened using a midline longitudinal incision, and the intestine (duodenum, jejunum, and ileum) was exposed and subsequently intubated at the two ends with a polypropylene perfusion tube connected to a peristaltic pump (Harvard Apparatus, Holliston, MA, USA). After covering the entire excised area with a cotton pad soaked with warm normal saline, the cannulated intestinal segments were flushed with blank perfusion buffer at 37 °C for 30 min, at a constant flow rate of 0.5 mL/min, to remove residual intestinal contents. Then, drug solutions of PMX, PMX/DL(1:1), PMX/DL(1:2), PMX/DL(1:1)-CD, or PMX/DL(1:2)-CD (equivalent to 100 μg/mL PMX) were perfused through the intestinal lumen at 37 °C and a constant flow rate of 0.2 mL/min. After allowing 30 min to achieve a steady-state, outlet perfusate was collected every 15 min for 120 min. In addition, to assess the reliability of the perfusion study, 100 μg/mL fluorescein diluted in perfusion buffer was perfused separately under the same conditions and the collected samples were analyzed at excitation/emission wavelengths of 494/512 nm using a microplate reader (PerkinElmer multimode plate reader; PerkinElmer, Waltham, MA, USA) as a low-permeability marker. During the experiment, all animals were kept on heated pads under a heat lamp to maintain a normal body temperature. At the end of the experiment, the lengths and radii of the cannulated intestinal segments were measured, taking care to avoid stretching them. The collected samples were then filtered using 0.45-μm PVDF filters and stored at −20 °C before analyses. The outlet concentration of PMX in the perfusate was analyzed by HPLC as described above. In addition, the errors caused by rat intestinal water absorption and secretion during perfusion were corrected by the net water flux (ratio of the […] perfusate flows, Qout/Qin) and the corrected drug concentration in perfusate for each formulation was calculated based on the following equation (i.e. gravimetric method): Cout,corr = Cout × (Qout/Qin), where Cout,corr is the corrected outlet PMX concentration (µg/mL), Cout is the PMX outlet concentration (µg/mL), Qin (mL/min) is the flow rate entering the intestine, and Qout (mL/min) is the measured perfusate exit flow (net weight/15 min, assumed density of 1.0 g/mL) for the specified time interval. After correction, the Peff was calculated using the equation: Peff = Qin/A × ln(Cout,corr/Cin), where A is the intestinal area available for absorption (2πrl) based on its length (l) and radius (r).

[2] = In vitro Caco-2 cell monolayer permeability; format: in vitro ADME; settings: human, equivalent to 50 µg/mL PMX, n = 7, read-out: Apparent permeability (Papp)
Experimental: To compare the in vitro apparent permeability (Papp) of PMX, PMX/DL(1:1), PMX/DL(1:2), PMX/DL(1:1)-CD, and PMX/DL(1:2)-CD across a Caco-2 (ATCC® HTB-37™; American Type Culture Collection, Manassas, VA, USA) cell monolayer, Caco-2 cells were seeded onto 24-well Transwell® filter inserts in Dulbecco's modified Eagle's medium (DMEM) containing 10% (v/v) fetal bovine serum and 1% penicillin/streptomycin, at a density of 1 × 10^5 cells/well, cultured for 14–16 days to form a confluent monolayer with the transepithelial electrical resistance (TEER) >350 Ω·cm^2. After the media in the apical and basolateral compartments were replaced with Hank’s balanced salt solution (HBSS) and stabilized for 20 min at 37 °C, 100 µL of the drug solution diluted with HBSS (equivalent to 50 µg/mL PMX) and 600 µL of HBSS were loaded into the apical and basolateral compartments in each well, respectively. During incubation at 37 °C, 100 µL of sample solution was withdrawn from each basolateral compartment, and the volume was replaced using fresh HBSS at 0.5, 1, 2, 3, 4, and 5 h. After passing through a polyvinylidene fluoride (PVDF) membrane filter (pore size: 0.45 µm), the concentration of PMX in each sample solution was measured using the HPLC system at 254 nm, with a Luna C18 column (4.6 × 250 mm, 5 µm, 100 Å) at 25 °C. […]

[3] = test system: CT26.CL25 tumor-bearing mice; format: in vivo; settings: 27 days after drug treatment, IV 150 mg/kg PMX
Experimental: To investigate the antitumor efficacy of oral PMX/DL(1:1)-CD and IV PMX given in combination with intraperitoneal aPD-1, 1 × 10^6 of CT26.CL25 cells in 100 µL of PBS (pH 7.4) were subcutaneously inoculated into each BALB/c mouse. When the average tumor volume reached 50–70 mm^3, mice were randomly divided into seven groups (10 mice per group): control (untreated), PMX-IV (150) (IV administration of 150 mg/kg PMX once every 3 weeks), aPD-1 (10) (intraperitoneal administration of 10 mg/kg aPD-1 once every 3 days), PMX-Oral (20) (once-daily oral administration equivalent to 20 mg/kg PMX), PMX/DL-CD (20) [once-daily oral administration PMX/DL(1:1)-CD equivalent to 20 mg/kg PMX], PMX-IV (150) + aPD-1 (10) (combination of IV administration of 150 mg/kg PMX once every 3 weeks, and intraperitoneal administration of 10 mg/kg aPD-1 once every 3 days), and PMX/DL-CD (20) + aPD-1 (10) (a combination of once-daily oral administration of PMX/DL(1:1)-CD equivalent to 20 mg/kg PMX and intraperitoneal administration of 10 mg/kg aPD-1 once every 3 days). During treatments, body weights and tumor volumes of mice in all seven groups were monitored once every 3 days, for 27 days. Tumor volumes in each mouse were calculated based on the following formula: 0.52 × a^2 × b, where a and b were the tumor widths and lengths, respectively.

[4] = read-out: Corrected outlet PMX concentration (Cout,corr)
[5] = read-out: Outlet concentration of PMX (Cout)

Compound: Nc1nc2[nH]cc(CCc3ccc(C(=O)N[C@@H](CCC(=O)O)C(=O)O)cc3)c2c(=O)[nH]1 [PMX, Pemetrexed]
- Antitumor efficacy compared to the control group (LLC cell-bearing mice; IV 150 mg/kg PMX once every 3 weeks): 60.9%
- Body weights compared to the control group (LLC cell-bearing mice; repeated administration for 3 weeks, all dose groups): did not change significantly
- Papp at 120 min, 100 μg/mL ([1]; rat intestine, n = 4, read-out: Effective permeability (Peff)): 83 ± 4.4 ×10⁻⁶ cm/s
- concentration at 15 min [1, 4]: 93.8 ± 2.73 µg/mL
- concentration at 15 min [1, 5]: 93.1 ± 1.73 µg/mL
- concentration at 30 min [1, 4]: 96 ± 1.36 µg/mL
- concentration at 30 min [1, 5]: 93.2 ± 0.04 µg/mL
- concentration at 45 min [1, 4]: 94.1 ± 0.46 µg/mL
- concentration at 45 min [1, 5]: 92.5 ± 0.51 µg/mL
- concentration at 60 min [1, 4]: 95.4 ± 0.19 µg/mL
- concentration at 60 min [1, 5]: 94.9 ± 0.19 µg/mL
- concentration at 75 min [1, 4]: 95.8 ± 0.87 µg/mL
- concentration at 75 min [1, 5]: 94.7 ± 1.19 µg/mL
- concentration at 90 min [1, 4]: 96.5 ± 0.54 µg/mL
- concentration at 90 min [1, 5]: 95.3 ± 0.87 µg/mL
- concentration at 105 min [1, 4]: 95.8 ± 0.27 µg/mL
- concentration at 105 min [1, 5]: 94.7 ± 1.92 µg/mL
- concentration at 120 min [1, 4]: 96.4 ± 1.52 µg/mL
- concentration at 120 min [1, 5]: 94.7 ± 1.82 µg/mL
- Papp at 5 h, 50 µg/mL [2]: 1.2 ± 0.349 ×10⁻⁶ cm/s
- Mice alive (survival) [3]: 50%
